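How tested: cells in 96-well plates exposed to compound for 48 hours at five concentrations. GI50 is the concentration that inhibits growth by half.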 Activity calls are given as the source filed them. Cut-off read from the data, not from the text of the source: active = GI50 up to about 1.1 µM and inactive = higher.

Common to all, as to experiment: DTP human tumour cell line panel, 48 h
Experiment [1] concerns A498.
For experiment [2], the system named is SN12C.
The test system of experiment [3] is HOP-92.
In experiment [4] the test system is NCI-H522.
In experiment [5] the test system is Hs-578T.
The test system of experiment [6] is BT-549.
The subject of experiment [7] is SW-620.
For experiment [8], the system named is KM12.
Experiment [9] relates to SNB-75.
In experiment [10] the test system is HCT-15.
For experiment [11], the system named is SK-OV-3.
In experiment [12] the test system is COLO 205.
In experiment [13] the test system is PC-3.
In experiment [14] the test system is CAKI-1.
Experiment [15] deals with OVCAR-3.
The test system of experiment [16] is NCI-H226.
Experiment [17] relates to K562.
In experiment [18] the test system is TK-10.
In experiment [19] the test system is OVCAR-4.
Experiment [20] has as its system OVCAR-8.

What is called GI50 is the concentration at which growth is held to half of that of the control. On to `CC1(O)CCC(C(C)(C)O)CC1` (stereo not given) [TERPIN], for which the GI50 in [1], in experiment [2], in experiment [3], in [4], in experiment [5] and in [6] was > 100 µM (inactive) throughout. Also, the GI50 is > 100 µM (inactive) in experiment [7]; > 100 µM (inactive) in experiment [8]; > 100 µM (inactive) in [9]; greater than 100 µM in [10]; > 100 µM (inactive) in experiment [11]; > 100 µM (inactive) in experiment [12]. Besides, the GI50 in [13], in experiment [14], in [15], in experiment [16], in [17] and in [18] was > 100 µM (inactive) in each case. Also, the GI50 in experiment [19] and in experiment [20] was > 100 µM (inactive) in each case.
